Assay results reported in EP1144412B1, “IMMUNOSUPPRESSIVE EFFECTS OF PTERIDINE DERIVATIVES” (4 AZA Bioscience nv, priority 1998, dated 2000).
pIC50: −log10 of the molar value. Like-named read-outs stand apart in the source and are kept apart here.

Assays:
Highly purified T cells [1] = assay: T cell proliferation induced by anti-CD3 mAb + PMA (BrdU incorporation); type: cell-based, Human; details: Homo sapiens, T-cell
Description: (§1) Various models may be used for testing an immunosuppressive effect. In vivo, for example, different transplantation models are available. They are strongly influenced by different immunogenicities, depending on the donor and recipient species used and depending on the nature of the transplanted organ. The survival time of transplanted organs can thus be used to measure the suppression of the immune response. In vitro, there exist also various models. The most used are lymphocyte activation tests. Usually activation is measured via lymphocyte proliferation. Inhibition of proliferation thus always means immunosuppression under the experimental conditions applied. There exist different stimuli for lymphocyte activation: • coculture of lymphocytes of […] (MLR = mixed lymphocyte reaction): lymphocytes expressing different minor and major antigens of the HLA-DR type (= alloantigens) activate each other non-specifically. • CD3 assay: here there is an activation of the T-lymphocytes via an exogenously added antibody (OKT3). This antibody reacts against the CD3 molecule located on the lymphocyte membrane. This molecule has a costimulatory function. […] This molecule is also located on the lymphocyte membrane, and delivers strong costimulatory signals.
(§2) T cells were purified by removing non-T cells. Briefly,monocytes were removed by cold agglutination. The resulting lymphoid cells were further purified by a cell enrichment immunocolumn [Cellect Human T (Biotex, Edmonton, Alberta, Canada)] by a process of negative selection.
(§3) Measurements of T cell proliferations induced by anti-CD3 mAb + PMA or anti-CD28 mAb + PMA
(§4) Highly purified T cells (10^6/ml) were stimulated by immobilized anti-CD3 àr anti-CD28 mAb in the presence of PMA. Anti-CD3 mAb (CLB-CD3; CLB, Amsterdam, The Netherlands) were fixed on the 96-microwell plates by incubating the wells with 50 µl of mAb solution (1/800 dilution in culture medium). Anti-CD28 mAb (CLB-CD28; CLB, Amsterdam, The Netherlands) 50 µl (1/650 dilution in culture medium) was added directly to the wells. Further, 20 µl PMA (Sigma, St. Louis, MO, USA) solution (final concentration: 0.5 ng/ml) was added. Subsequently, 20 µl of immunosuppressants were added by serial dilution in triplicate wells. Finally 100 µl of the T cell suspension (10^6/ml) was added. After 48-hour incubation at 37EC in 5% CO2 20 Φl BrdU (100 ΦM solution) (Cell Proliferation Elisa, Boehringer-Mannheim Belgium) was added to each well. After a further overnight incubation the T cell proliferation was measured using a colorimetric immunoassay for qualification of cell proliferation based on measurements of the incorporation of BrdU during DNAsynthesis. The optical density (OD) was measured by a Behring EL311 plate reader at 450 nm (reference wavelength: 690 nm). The percent suppression of proliferation by drugs was counted using the formula: Per cent inhibition =((OD + drugs) - (OD Cult. Med.))/((OD - drugs) - (OD Cult. Med.))x 100 [formula]

[2] = tested on: Peripheral blood mononuclear cells (PBMC); assay: Mixed lymphocyte reaction (MLR), [3H]-thymidine incorporation; type: cell-based; details: Homo sapiens
Description: as §1
Peripheral blood mononuclear cells (PBMC) were isolated from heparinized peripheral blood by density gradient centrifugation over Lymphoprep (Nycomed, Maorstua, Norway). Allogeneic PBMC or EBV-transformed human B cells [RPMI1788 (ATCC name CCL156)] which strongly express B7-1 and B7-2 were used as stimulator cells after irradiation with 30 Gy. MLR was performed in triplicate wells. After 5 days incubation at 37EC, 1 µCi [^3H]-thymidine was added to each cup. After a further 16 hours incubation, cells were harvested and counted in a β-counter.
The percent suppression of proliferation by drugs was counted using the formula Percent inhibition =((cpm + drugs) - cpm Cult. Med)/((cpm - drugs) - cpm Cult. Med.)x 100 [formula]

Highly purified T cells [3] = assay: T cell proliferation induced by anti-CD28 mAb + PMA (BrdU incorporation); type: cell-based, Human; details: Homo sapiens, T-cell
Description: as §1, §2, §3, §4

[4] = Table II, read-out: IC50 in µM of pteridine derivative ACD3
[5] = untitled structure table, no unit printed there, same values in Table II as IC50 in µM, read-out: aCD3
[6] = Table II, read-out: IC50 in µM of pteridine derivative MLR
[7] = untitled structure table, no unit printed there, same values in Table II as IC50 in µM, read-out: MLR
[8] = Table II, read-out: IC50 in µM of pteridine derivative aCD28
[9] = untitled structure table, no unit printed there, same values in Table II as IC50 in µM, read-out: aCD28

Structure (SMILES) | IC50 (Highly purified T cells [1]; [4]) [µM] | IC50 (Highly purified T cells [1]; [5]) [µM] | IC50 [2, 6] [µM] | IC50 [2, 7] [µM] | IC50 (Highly purified T cells [3]; [8]) [µM] | IC50 (Highly purified T cells [3]; [9]) [µM] | pIC50 ([2]; untitled structure table, IC50 subranges, read-out: MLR) | pIC50 (Highly purified T cells [1]; untitled structure table, IC50 subranges, read-out: aCD3) | pIC50 (Highly purified T cells [3]; untitled structure table, IC50 subranges, read-out: aCD28)
Cc1nc2nc(N)nc(N)c2nc1-c1ccccc1 [Compound 6, 2,4-diamino-6-phenyl-7-methylpteridine] | > 200 | > 200 | > 200 | > 200 | > 200 | > 200 |  |  | 
Cc1ccc(-c2cnc3nc(N)nc(N)c3n2)cc1 [Compound 7, 2,4-diamino-6-(4-tolyl)pteridine] | 110 | 110 | > 200 | > 200 | 25 | 25 |  |  | 
COc1ccc(-c2cnc3nc(N)nc(N)c3n2)cc1 [Compound 8, 2,4-diamino-6-(4-methoxyphenyl)pteridine] | 125 | 125 | 150 | > 150 | 22 | 22 |  |  | 
Nc1nc(N)c2nc(-c3ccc(Cl)cc3)cnc2n1 [Compound 9, 2,4-diamino-6-(4-chlorophenyl)pteridine] | 110 | 110 | 125 | 125 | 110 | 110 |  |  | 
Nc1nc(NCCO)nc2ncc(-c3ccccc3)nc12 [Compound 10, 2-hydroxyethylamino-4-amino-6-phenylpteridine] | 125 | 125 | 125 | 125 | 125 | 125 |  |  | 
Cc1ccc(-c2cnc3nc(NCCO)nc(N)c3n2)cc1 [Compound 11, 2-hydroxyethylamino-4-amino-6-(4-tolyl)pteridine] | 200 | 200 | > 200 | > 200 | 160 | 160 |  |  | 
COc1ccc(-c2cnc3nc(NCCO)nc(N)c3n2)cc1 [Compound 12, 2-hydroxyethylamino-4-amino-6-(4-methoxyphenyl)pteridine] | > 200 | > 200 | > 200 | > 200 | 160 | 160 |  |  | 
Nc1nc(NO)c2nc(-c3ccccc3)cnc2n1 [Compound 13, 2-amino-4-hydroxylamino-6-phenylpteridine] | > 200 | > 200 | 140 | 140 | > 200 | > 200 |  |  | 
CN(C)c1nc(N)nc2ncc(-c3ccccc3)nc12 [Compound 14, 2-amino-4-dimethylamino-6-phenylpteridine] | 15 | 15 | 5 | 5 | 15 | 15 |  |  | 
Cc1ccc(-c2cnc3nc(N)nc(N(C)C)c3n2)cc1 [Compound 15, 2-amino-4-dimethylamino-6-(4-tolyl)pteridine] | 4.5 | 4.5 | 3.6 | 3.6 | 3.9 | 3.9 |  |  | 
COc1ccc(-c2cnc3nc(N)nc(N(C)C)c3n2)cc1 [Compound 16, 2-amino-4-dimethylamino-6-(4-methoxyphenyl)pteridine] | 7.5 | 7.5 | 12 | 12 | 7.5 | 7.5 |  |  | 
COCCOCc1cnc2nc(N)nc(N)c2n1 [Compound 17, 2,4-diamino-6-methoxyethoxymethyl pteridine] | 180 | 180 | > 200 | > 200 | 18 | 18 |  |  | 
CCCNc1nc(N)nc2ncc(-c3ccc(OC)c(OC)c3)nc12 [Compound 63, 2-amino-4-propylamino-6-(3,4-dimethoxyphenyl)pteridine] |  |  |  |  |  |  | > 6.00 |  | 
CCOc1nc(N)nc2ncc(-c3ccc(OC)c(OC)c3)nc12 [Compound 66, 2-amino-4-ethoxy-6-(3,4-dimethoxyphenyl)pteridine] |  |  |  |  |  |  |  | > 6.00 | > 6.00
